Data on 89 compounds can be found in a melting point compilation (Tetko et al.; mined from patent text by program, amines drawn as free bases though some values may be those of a salt).

`Nc1ccc(S(=O)c2ccc(-c3ccc(Br)cc3)cc2)cc1N` (centres undefined) gave a melting point of 161 to 164 °C.

In the case of `CC(C)(C)c1cc(Cl)nc(N)n1`, the melting point is 87.7 to 88.9 °C.

Consider `CCc1cccc(C)c1CNc1cc(C(=O)N(C)C)cc2[nH]c(C)nc12`, for which the melting point lay in the range of 228 to 230 °C.

`c1ccc(-c2nc3n(n2)Cc2ccccc2-3)cc1`: the melting point fell in the range of 156 to 158 °C.

`CCOC(=O)c1nc(CCl)n(-c2ccc(Br)cc2C(=O)c2ccccn2)n1` displayed a melting point of 96 to 97 °C.

`Fc1ccc(Cl)c(-c2c(Cl)nc3ncnn3c2Cl)c1` displayed a melting point of 137 °C.

As for `CCOC(=O)CN1C(=O)COc2cc(N)ccc21`, the melting point lay within 136 to 137 °C.

`CCCCC(=O)Oc1ccc(-c2ccc(C#N)cc2)cc1` had a melting point of 36.5 to 36.9 °C.

In turn, `CCOC(=O)C(Cc1ccc(OCc2ccccc2)cc1)Oc1ccc(Cl)cc1` (centres undefined) had a melting point of 63 to 64 °C.

The compound `CCCC(=O)Nc1ccc2c(c1)CCC(CN1CCC(O)(c3ccccc3)CC1)C2=O` (centres undefined) registered a melting point of 196 to 198 °C.

Take `CCCc1c(OCC2COc3cc(CC(=O)O)ccc3O2)ccc(C(C)=O)c1O` (centres undefined): the melting point was 143 to 146 °C.

`COc1ccc(CCNC(=O)CCCCC(=O)NCCNc2ccccc2)cc1OC` had a melting point of 109 to 111 °C.

`Cc1cccc(CN2CCc3ccc(C(=O)CCC(=O)N4CCC(c5ccc(Cl)cc5)CC4)cc3CC2)c1` returned a melting point of 127 to 128 °C.

In turn, `CCOC(=O)C(=O)Nc1nnc2c3c(c(N4CCCCC4)nn12)CCCC3` displayed a melting point of 168 to 169 °C.

`C=C[C@@H]1O[C@](/C=C/C2CC2)(C(F)(F)F)c2cc(Cl)ccc2NC1=O` (relative stereo) registered a melting point of 166 °C.

In the case of `Fc1cc(CC2(Cc3ccnc(F)c3)c3ccccc3-c3ncccc32)ccn1`, the melting point lay within 137 to 140 °C.

`Cc1cc(NCc2ccc3oc(-c4ccccc4C#N)c(Br)c3c2)n2nccc2n1` had a melting point of 210 to 215 °C.

In turn, `O=C(NC1C(=O)N(CC23CC4CC(CC(C4)C2)C3)c2ccc(F)cc2N(c2ccccc2)C1=O)Oc1ccccc1` (centres undefined) had a melting point of 156 to 159 °C.

Compound `N#Cc1c(N2CCCCC2)[nH]c2cccnc12` came in with a melting point of 241 to 242 °C.

As for `COCOc1ccc(COc2cc3c(cc2-c2cc(C=CC(=O)O)ccc2OC)C(C)(C)CCC3(C)C)cc1`, the melting point lay within 106 to 108 °C.

The compound `CC(C)(Cc1cccc2ccccc12)NC=O` showed a melting point of 79 to 80 °C.

`COCCc1nc2c(N)nc3ccc(CCC(=O)N4CCOCC4)cc3c2n1CCCN1CCCC1=O` displayed a melting point of 168 to 170 °C.

For `Fc1cccc(-c2nc3cc(Br)ccn3n2)c1`, the melting point is 186 to 188 °C.

`CN(C)CCC1CCc2cc(OCc3cc4ccccc4o3)ccc2C1` (single isomer, unassigned; (+)) showed a melting point of 75 to 77 °C.

Consider `Cc1ccccc1C(=O)Nc1ccc(C(=O)N2CCCC(NC(=O)CN(C)C)c3ccccc32)cc1` (centres undefined), for which the melting point fell in the range of 214 to 216 °C.

`CCCCN(CCCC)CC(=O)N1c2ccccc2N(CCCC)C(=O)c2cnc(-c3ccccc3)nc21` showed a melting point of 103 to 104 °C.

Compound `CC(=O)Oc1ccc2c(c1)CCC1C2C(O)CC2(C)C(=O)CCC12` (centres undefined) returned a melting point of 180 to 182 °C.

Regarding `O=C(NCc1ccccc1)c1ccnc(NC(=O)c2ccccc2)c1`, the melting point was in the range of 174 to 176 °C.

As for `CNC(=C[N+](=O)[O-])NCCSCc1cc(CN(C)C)ccn1`, the melting point fell in the range of 113 to 115 °C.

Take `O=C1CCn2cc(C(=O)NCc3ccc(Cl)cc3)c(=O)c3cc(CN4CCOCC4)cc(c32)N1`: the melting point is 235 to 240 °C.

With `CCC(CC)(CC(=O)Nc1cccc(OCc2ccc3ccc(F)cc3n2)c1)C(=O)O`, the melting point is 92 to 93 °C.

Turning to `Cn1c(-c2ccccc2)nc2ncnn2c1=S`, the melting point was 246 to 248 °C.

As to `CCSC1=N[C@@H](c2ccccc2)[C@H](c2ccccc2)N1` (relative stereo), the melting point is 130 to 132 °C.

On to `COc1cc(/C(C#N)=C\c2ccc(C)c(N)c2)cc(OC)c1OC`, for which the melting point fell in the range of 161 to 162 °C.

On to `COc1ccc(C(=O)c2ccc(OCCc3nc(-c4ccccc4)oc3C)nc2)c(O)c1`, for which the melting point fell in the range of 114 to 115 °C.

As to `CC(C)(C)c1nc2c(Cl)ccc(C(=O)O)c2o1`, the melting point lay within 209 to 210 °C.

`COc1ncnc(-c2cc(N)c(C#N)cc2F)c1Cl` had a melting point of 186 to 189 °C.

The compound `CN1C(=O)C(=O)c2cccnc21` displayed a melting point of 162 to 163 °C.

For `COc1cc(Cc2cnc(N[N+](=O)[O-])[nH]c2=O)ccn1`, the melting point is 194 to 196 °C.

For the compound `NC[C@@H]1CN(c2nc3c(cc2F)c(=O)c(C(=O)O)cn3C2CC2)C[C@@H]1F` (relative stereo), the melting point lay within 217 to 218 °C.

Compound `COc1cccc(C23CCCC=C2C(=O)N(CC2CCC2)C(=O)C3)c1` (centres undefined) registered a melting point of 89 to 93 °C.

In the case of `Cc1cc(-n2ccnc2)c2cccc(OCc3c(Cl)ccc(S(=O)(=O)N4CCC[C@H]4C(=O)NCCCCCN(C)C)c3Cl)c2n1`, the melting point was 85 °C.

Turning to `O=C(c1cccs1)c1ccc(Cl)cc1Cl`, the melting point was 75 °C.

The compound `CCn1ncc2c3noc(-c4ccc(OC)cc4)c3cnc21` had a melting point of 215 to 216 °C.

In turn, `COc1ccc(S(=O)(=O)C2(CCCC#Cc3ccc(Cl)cc3)SC(=O)NC2=O)cc1` (centres undefined) showed a melting point of 172 to 174 °C.

Turning to `Cc1c(N2CC(O)C2)c(F)cc2c(=O)n(N)c(=O)n(C3CC3)c12`, the melting point lay within 212 to 214 °C.

On to `CCCN1c2ccccc2N(C)C(=O)c2cccnc21`, for which the melting point is 96 to 98 °C.

For the compound `CCNC(=O)c1ccccc1Nc1nc(Nc2cc3c(cc2OC)CC(=O)N(CC)CC3)ncc1Cl`, the melting point lay within 244 to 251 °C.

For the compound `CC(C)(C)c1ccc(-c2nn(-c3ccc(F)cc3F)c3c2C2CCC3C2)cc1` (centres undefined), the melting point was 130 to 132 °C.

Take `CCOC(=O)C(O)(CC(C)(C)c1cc(F)ccc1OC)C(F)(F)F` (centres undefined): the melting point lay in the range of 38 to 39 °C.

For the compound `CCCCOc1ccc(S(=O)(=O)C2(C(=O)O)CCN(Cc3ccc(OCCN4CCCCC4)cc3)CC2)cc1`, the melting point is 98 °C.

`O=C(Nc1ccc(SC(F)(F)F)cc1)c1cc(S(=O)(=O)c2ccccc2)c2ccccc2c1O`: the melting point lay within 271 to 272 °C.

The compound `CC(C)CCn1c(=O)c(=NNc2ccccc2)c(=O)n(-c2ccccc2F)c2ccccc21` came in with a melting point of 104 to 105 °C.

In the case of `CCCCc1nc2c(N)nc(C)c(C)c2n1CCCCNC(=O)Nc1ccccc1`, the melting point is 196 to 197 °C.

Take `O=C(O)c1ccc(C=CC(=O)N2CCCCC2)cc1`: the melting point worked out at 257 °C.

The compound `CCCCn1nnc2cc(C(=O)O)ccc21` yielded a melting point of 192 °C.

As for `Cc1ccc(C)c(CN2C(=O)c3ccccc3C2=O)c1`, the melting point was 148 to 150 °C.

`COC(=O)c1cccc(C(=O)CC(=O)c2ccccc2)c1` displayed a melting point of 106 to 108 °C.

The compound `CCOC(=O)N(C)C(=O)N(O)C(C)c1cc(C)sc1C` (centres undefined) registered a melting point of 111 to 112 °C.

In turn, `COc1ccc(C(=O)CCCCCBr)cc1` displayed a melting point of 40 to 41 °C.

`NC1=C2C=NN=C2N(c2ccccc2)CN1c1ccccc1` showed a melting point of 244 to 246 °C.

`CCCOc1ccc(C2=NN(C(=S)Nc3ccc(C(F)(F)F)cc3)CC2NCC(=O)OC)cc1` (centres undefined) gave a melting point of 167 to 169 °C.

`CCn1ncc2nc(C(=O)OCC#N)c(-c3ccccc3)nc21` displayed a melting point of 102 to 103 °C.

In the case of `CCCCCCCCCCCCC#CCO`, the melting point was in the range of 36 to 37 °C.

For the compound `CCCc1c(C(=O)C(C)C)c2ccc(C(N)=O)cc2n1Cc1ccccc1C`, the melting point was 190 to 191 °C.

The compound `C=CCSC1(C(F)(F)F)CN(C2CC2)C(=O)Nc2ccc(Cl)cc21` (centres undefined) showed a melting point of 144 to 146 °C.

As for `CCOC(=O)c1cc2cc(N)ccc2[nH]1`, the melting point lay within 124 to 125 °C.

`CC(C)(C)c1cc(C=O)c(O)cc1Cl` showed a melting point of 38 to 39 °C.

Compound `Nc1ccc(CN2C(=O)C3(COc4cc5c(cc43)OCCO5)c3ccccc32)cn1` (centres undefined) yielded a melting point of 117 to 119 °C.

Compound `CC(=O)NC[C@H]1CN(c2ccc(C3CCN(C(=O)O)CC3)c(F)c2)C(=O)O1` returned a melting point of 144 to 146 °C.

In the case of `Nc1ccc(OC(=O)C2CCCCC2)c(C(=O)O)c1`, the melting point lay in the range of 116 to 121 °C.

As for `O=C(Nc1nnn[nH]1)c1cccc([N+](=O)[O-])c1Cl`, the melting point was determined as 279 °C.

In turn, `C#CCOc1cc(O)ccc1-c1nc2cnccc2[nH]1` came in with a melting point of 242 °C.

As to `CS(=O)(=O)c1ccc(-c2cc3c(cc2Cc2cc(F)cc(F)c2)OCCO3)cc1`, the melting point lay in the range of 160 to 162 °C.

As to `C=CS(=O)(=O)c1ccc(/C(=C\C2CCCCC2)C(=O)OC)cc1Cl`, the melting point is 105 to 108 °C.

Compound `COc1ccc(C(=O)C(C(=O)Nc2cc(N)ccc2Cl)N2C(=O)c3ccccc3C2=O)cc1` (centres undefined) returned a melting point of 105 to 107 °C.

`COc1ccc(N2C3CCC2CC(=O)C3)cc1` registered a melting point of 133 to 134 °C.

The compound `CN(C)N(C)C(=O)NC1c2ccccc2Oc2ccccc21` showed a melting point of 141 to 142 °C.

`Cc1c(Cl)ccc(N(C)C(=O)CN2C(=O)c3ccccc3C2=O)c1Cl` yielded a melting point of 193 to 194 °C.

On to `CC=CCNc1cc(C(=O)O)cc(S(N)(=O)=O)c1Nc1ccc(NC(C)=O)cc1`, for which the melting point stood at 230 °C.

The compound `CCCN1CCCCC1C(=O)Nc1c(C)cccc1C` (centres undefined) displayed a melting point of 142 to 145 °C.

With `CN1C2CCC1CC(O)(c1ccccc1)C2` (centres undefined), the melting point was 157 to 159 °C.

In turn, `CN1C2C=C(c3ccc(F)cc3)CC1CC2` (centres undefined) displayed a melting point of 62 to 63 °C.

`COc1cccc(C=CC(=O)CC(=O)C=Cc2cccc(OC)c2OC)c1OC` returned a melting point of 117 to 120 °C.

`COc1ccc(C(=O)CNc2ccccc2)cc1` came in with a melting point of 105 to 106 °C.

`CCCCC(=O)c1ccc(C(=O)Nc2ccc3cc(CN4CCCC4)cnc3c2C)cc1` returned a melting point of 180 °C.

`CCOC(=O)C(=CNc1c(C#N)cnn1-c1ccc(Cl)c(Cl)c1Cl)C(=O)OCC` showed a melting point of 157 to 158 °C.

The compound `COC(=O)C(=O)c1ccc(OCCOc2ccnc3ccccc23)cc1` registered a melting point of 135 to 136 °C.

`CCCCCC(=O)N(C)Cc1cc(-c2ccc(C[C@H](OCC)C(=O)O)cc2)cs1` came in with a melting point of 65 °C.
